Test results taken from US20040121304A1, “Method for screening for progesterone receptor isoform-specific ligands and for tissue-selective progesterone receptor ligands” (priority 2004, published 2004).

Tests used:
[1] = molecular target: T1, hPR-A (progesterone receptor isoform A) (Homo sapiens, UniProt P06401); assay: Transactivation assay, SK-N-MC cells stably transfected with hPR-A and MTV-LUC reporter; format: cell-based; settings: for Emax / antagonism efficacy (PR-A): SK-N-MC hPR-A/MTV-LUC cells, 24 h incubation; for Emax: LUC activity relative to R5020 10^-7 mol/l = 100%, 1% ethanol = 0%, read-out: Agonism efficacy (PR-A); for antagonism efficacy (PR-A): inhibition of LUC induction by 10^-10 mol/l R5020
T1 construct: expressed in transfected cells; host or cells: SK-N-MC (human neuroblastoma) cells, stably transfected with phPR-2 (PR-A plasmid) plus pRSV-neo and pMTV-LUC
T1 sequence (P06401 1-769 isoform P06401-2): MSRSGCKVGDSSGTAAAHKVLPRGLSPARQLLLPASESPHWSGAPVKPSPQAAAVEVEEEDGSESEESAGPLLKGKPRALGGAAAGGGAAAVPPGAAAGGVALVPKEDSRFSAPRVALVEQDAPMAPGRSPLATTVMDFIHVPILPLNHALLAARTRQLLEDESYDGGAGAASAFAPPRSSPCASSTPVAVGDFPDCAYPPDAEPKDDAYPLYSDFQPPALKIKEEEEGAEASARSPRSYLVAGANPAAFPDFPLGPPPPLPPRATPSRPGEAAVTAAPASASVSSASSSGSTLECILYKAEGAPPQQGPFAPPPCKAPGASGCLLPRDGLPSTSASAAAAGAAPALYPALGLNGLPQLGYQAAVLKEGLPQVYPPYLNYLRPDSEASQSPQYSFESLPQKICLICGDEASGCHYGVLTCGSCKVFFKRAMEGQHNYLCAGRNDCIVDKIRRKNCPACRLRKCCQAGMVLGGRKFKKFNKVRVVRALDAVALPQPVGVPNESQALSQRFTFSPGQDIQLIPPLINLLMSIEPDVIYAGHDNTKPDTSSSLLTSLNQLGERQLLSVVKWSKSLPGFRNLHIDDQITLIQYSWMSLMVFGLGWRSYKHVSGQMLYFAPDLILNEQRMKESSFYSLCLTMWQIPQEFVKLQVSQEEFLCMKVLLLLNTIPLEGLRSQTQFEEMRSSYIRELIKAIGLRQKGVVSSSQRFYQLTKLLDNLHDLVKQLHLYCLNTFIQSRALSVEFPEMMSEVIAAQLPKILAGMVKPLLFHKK
Method: (§1) The method for screening for isoform-specific PR ligands according to the present invention is carried out with first and second SK-N-MC cells stably transfected with a plasmid expressing the hPR-A (first cells) or the hPR-B (second cells) and the LUC reporter gene linked to the hormonally responsive MTV promoter. A detailed description of how the cell lines according to the invention and used in this Example may be obtained is given in Example 5.
(§2) The cells are cultured in Minimum Essential Medium with Earl's Salts (S-MEM, without L-glutamine; Gibco BRL, no. 21090-022), supplemented with 10% fetal calf serum (FCS), penicillin 100U/streptomycin 100 μg/ml (Biochrom, no. A2213), L-glutamine 4 mmol/l (Gibco BRL, no. 25030-024), sodium pyruvate 1 mmol/l (Biochrom, no. L0473) and 1× non-essential amino acids (Biochrom, no. K0293) at a temperature of 37° C. and in an atmosphere of 5% carbon dioxide.
(§3) For the transactivation assay, the cells are seeded onto 96-well dishes (2×10^4 cells/dish) and cultured in a medium as described above, with the exception that the FCS is replaced by a 3% charcoal stripped FCS. 48 hours later, cells are contacted with prediluted test compounds. For determination of agonistic activity, cells are cultured in the presence of increasing concentrations (10^−6 to 10^−11 mol/l) of test compounds. As a positive control for reporter gene induction cells are treated with 10^−6 to 10^−11 mol/l R5020 (promegestone). As a negative control for reporter gene induction, cells are cultured in 1% ethanol. For determination of antagonistic activity, cells are treated with 10^−10 mol/l R5020 and additionally with increasing concentrations (10^−6 to 10^−11 mol/l) of test compounds. As a positive control for inhibition of reporter gene transcription, cells are cultured in increasing concentrations (10^−7 to 10^−12 mol/l) of the antiprogestin mifepristone. As a negative control for inhibition of reporter gene transcription, cells are cultured in 1% ethanol.
(§4) After incubation with test compounds for 24 hours, the medium is removed and cells are lysed with 20 μl of lysis buffer (Luciferase Assay System E 153A; Promega) and under agitation of the plate for 10 min. After addition of 30 μl of luciferase reagent (Luciferase Assay System E 151A+152A; Promega) within 30 seconds per plate, the activity of the luciferase reporter gene product is determined in the cell lysates by means of a Microlite ML 3000 microtiter plate luminometer (Dynatech) in cycle mode.
(§5) Evaluation of the response gives the efficacy [%] for both agonism and antagonism, and evaluation of the EC50 (for agonism) and IC50 (for antagonism) values gives the potency [nM]. Calculation of these values is conducted as follows:
(§6) Calculation of Agonistic Activity:
(§7) The LUC activity [%] for the measured data points is calculated as follows: [formula]
(§8) and CO=0% stimulation (ethanol, 1%).
(§9) Thus, the efficacy [%] is determined according to: [formula]
(§10) The potency [nM], i.e. the EC50, is determined graphically.
(§11) Calculation of Antagonistic Activity:
(§12) wherein CI=0% inhibition (R5020, 10^−10 mol/l) (corresponds to 100% stimulation)
(§13) and CO=100% inhibition (EtOH, 1%) (corresponds to 0% stimulation)
(§14) The potency [nM], i.e. the IC50, is determined graphically.

[2] = molecular target: T2, hPR-B (progesterone receptor isoform B) (Homo sapiens, UniProt P06401); assay: Transactivation assay, SK-N-MC cells stably transfected with hPR-B and MTV-LUC reporter; format: cell-based; settings: for Emax / antagonism efficacy (PR-B): SK-N-MC hPR-B/MTV-LUC cells, 24 h incubation; for Emax: LUC activity relative to R5020 10^-7 mol/l = 100%, 1% ethanol = 0%, read-out: Agonism efficacy (PR-B); for antagonism efficacy (PR-B): inhibition of LUC induction by 10^-10 mol/l R5020; for Difference of agonism efficacies (PR-B - PR-A): indicating PR-B selectivity
T2 construct: expressed in transfected cells; host or cells: SK-N-MC (human neuroblastoma) cells, stably transfected with pRSVhPR-neo (built from pRC/RSV and hPR-1) and pMTV-LUC
T2 sequence (P06401 1-933): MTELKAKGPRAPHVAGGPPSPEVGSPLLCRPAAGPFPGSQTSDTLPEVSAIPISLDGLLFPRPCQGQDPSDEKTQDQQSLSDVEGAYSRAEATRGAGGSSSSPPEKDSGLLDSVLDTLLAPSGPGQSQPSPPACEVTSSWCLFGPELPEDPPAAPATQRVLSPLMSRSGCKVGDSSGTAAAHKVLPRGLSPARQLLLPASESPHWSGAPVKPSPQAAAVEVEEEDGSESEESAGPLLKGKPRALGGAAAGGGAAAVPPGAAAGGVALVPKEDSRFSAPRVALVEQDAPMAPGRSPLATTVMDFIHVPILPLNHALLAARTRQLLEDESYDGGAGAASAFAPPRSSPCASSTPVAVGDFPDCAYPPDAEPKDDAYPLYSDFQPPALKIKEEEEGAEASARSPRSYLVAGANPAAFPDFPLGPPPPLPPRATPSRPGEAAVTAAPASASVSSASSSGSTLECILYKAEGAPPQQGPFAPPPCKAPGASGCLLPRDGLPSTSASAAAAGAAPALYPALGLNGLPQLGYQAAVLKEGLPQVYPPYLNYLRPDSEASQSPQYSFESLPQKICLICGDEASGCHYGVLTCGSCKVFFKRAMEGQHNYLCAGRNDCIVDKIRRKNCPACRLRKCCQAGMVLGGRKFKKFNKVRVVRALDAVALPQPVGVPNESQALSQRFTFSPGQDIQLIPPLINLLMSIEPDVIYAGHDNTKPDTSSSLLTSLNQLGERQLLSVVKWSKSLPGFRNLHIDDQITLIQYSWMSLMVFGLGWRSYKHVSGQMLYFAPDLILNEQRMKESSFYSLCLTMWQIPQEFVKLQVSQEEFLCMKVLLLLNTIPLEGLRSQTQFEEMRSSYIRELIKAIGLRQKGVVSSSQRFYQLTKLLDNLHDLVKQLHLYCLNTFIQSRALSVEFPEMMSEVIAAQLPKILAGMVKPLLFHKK
Method: as §1, §2, §3, §4, §5, §6, §7, §8, §9, §10, §11, §12, §13, §14

Row | Structure (SMILES) | Emax [1] [%] | antagonism efficacy (PR-A) [1] | Emax [2] [%] | antagonism efficacy (PR-B) [2] | Difference of agonism efficacies (PR-B - PR-A) [2] [%] | Difference of antagonism efficacies (PR-A - PR-B) ([1]; indicating PR-A selectivity) [%] | Difference of agonism efficacies (PR-A - PR-B) ([1]; indicating PR-A selectivity) [%]
1 | C#C[C@]1(O)C=CC2C3CCC4=CC(=O)CC[C@@]45CCC=C(C[C@@]21CC)C35 (stereo partly drawn) [13-ethyl-5α,9-dihydro-17-hydroxy-(17α)-6′H-benzo[10,9,11]-18,19-dinorpregna-4,9(11),15-trien-20-yn-3-one] | 85 | none | 108 | none | 23 |  | 
2 | CC(=O)O[C@]1(C(C)=O)CCC2C3C=C(Cl)C4=CC(=O)CC[C@@]45CC[C@@H](C[C@@]21C)C35 (stereo partly drawn) [17-(acetyloxy)-6-chloro-9,11-dihydro-(11α)-cyclopenta[10,9,11]-19-norpregna-4,6,9(11)-triene-3,20-dione] | 29 | 45% | 50 | 30% | 21 | 15 | 
3 | C#C[C@]1(O)C=CC2C3CCC4=CC(=O)CC[C@@]45CC=C[C@@H](C[C@@]21C)C35 (stereo partly drawn) [9,11-dihydro-17-hydroxy-(11α,17α)-6′H-benzo[10,9,11]-19-norpregna-4,9(11), 15-trien-20-yn-3-one] | 131 | none | 114 | none |  |  | 17
4 | O=C1OCc2cc(NC(=O)C(O)(CC3(c4cccc(Br)c4)CC3)C(F)(F)F)ccc21 (stereo not drawn) [1-(3-bromophenyl)-N-(1,3-dihydro-1-oxo-5-isobenzofuranyl)-α-hydroxy-α-(trifluoromethyl)-cyclopropanepropanamide] | 81 | none | 106 | none | 25 |  | 
5 | CC(CC(O)(CNc1ccc2c(c1)COC2=O)C(F)(F)F)c1ccccc1 (stereo not shown) [5-{[2-hydroxy-4-phenyl-2-(trifluoromethyl)pentyl]amino}-1(3H)-isobenzofiuranone] | 39.9 | none | 56.8 | none | 17 |  | 
6 | CC(=O)O[C@]1(C(C)=O)CCC2C3C[C@H](C)C4=CC(=O)CC[C@@]45CC=C[C@@H](C[C@@]21C)C35 (stereo partly drawn) [17-(acetyloxy)-9,11-dihydro-6-methyl-(6α,11α)-6H′benzo[10,9,11]-19-norpregna-4,9(11)-diene-3,20-dione] | 50 | none | 90 | none | 40 |  | 
7 | C=C[C@]1(O)CCC2C3CCC4=CC(=O)CC[C@@]45CC=C[C@@H](C[C@@]21CC)C35 (stereo partly drawn) [13-ethyl-9,11-dihydro-17-hydroxy-(11α,17α)-6′H-benzo[10,9,11]-18,19-dinorpregna-4,9(11),20-trien-3-one] | 132 | none | 108 | none |  |  | 24
8 | C#C[C@]1(O)CCC2C3CCC4=CC(=O)CC[C@@]45CC=C[C@@H](C[C@@]21CC)C35 (stereo partly drawn) [13-ethyl-9,11-dihydro-17-hydroxy-(11α,17α)-6′H-benzo[10,9,11]-18,19-dinorpregna-4,9(11)-dien-20-yn-3-one] | 129 | none | 108 | none |  |  | 21
9 | CC(=O)O[C@]1(C(C)=O)CC[C@H]2[C@@H]3C=C(C)C4=CC(=O)CC[C@]4(C)[C@H]3CC[C@@]21C [17-acetoxy-6-methyl-4,6-pregnadiene-3,20-dione] | 35 | none | 81 | none | 46 |  | 
